Results from patent US20140030808A1, “Method for Cellular RNA Expression” (BIONTECH AG, priority 2010, published 2014).
Like-named read-outs stand apart in the source and are kept apart here.

Tests used:
[1] = test system: Primary human foreskin fibroblasts (BJ, CCD1079Sk); test: GFP expression by flow cytometry (MFI) in fibroblasts electroporated with IVT RNA; assay type: cell-based
Method: (§1) (AB) Primary human foreskin fibroblasts from different donors and suppliers (panel A: BJ fibroblasts; panel B CCD1079Sk) and (C) MEFs were electroporated with 0.5 μg IVT RNA encoding for firefly luciferase and 1.25 μg IVT RNA encoding for enhanced GFP (eGFP). The cells were plated into […] at a density of 250000 cells/well. The cells were either left untreated or incubated with increasing amounts of C13H8N4OS (PKR-inhibitor) ranging from 0.5 μM to 2 μM as indicated in the panel legends. GFP expression was measured by flow cytometry at the indicated time points. The mean fluorescence intensity (MFI) of the transfected GFP-positive cell fractions is shown.
(§2) Transfer of IVT-RNA into cells was performed by electroporation (EP). […]
(§3) For quantification of d2eGFP and eGFP protein, cells were washed in PBS, fixed using PBS supplemented with 2% formaldehyde and analyzed by flow cytometry on a FACS Canto II flow cytometer (BD Biosciences, Heidelberg, Germany). Gating was performed on living cells and mean fluorescence intensity (MFI) of GFP expressing cell populations was quantified using FlowJo software (Tree Star, Ashland, Oreg., USA). […] Gating was performed on living CD4+ and CD8+ T-cells and GFP expression and MFI of both T-cell subpopulations was determined by flow cytometry. […]

[2] = test system: Primary human umbilical vein endothelial cells (HUVECs); assay type: cell-based
[3] = test system: Primary human foreskin fibroblasts (BJ, CCD1079Sk, HFF); assay type: cell-based; details: for luciferase expression after transient treatment: BJ and CCD1079SK
[4] = test system: MEFs; test: GFP expression by flow cytometry (MFI) in murine fibroblasts electroporated with IVT RNA; assay type: cell-based; details: 0.5 μM to 2 μM, mouse fibroblasts
Method: as §1, §2, §3

[5] = test system: CCD1079SK fibroblasts; test: Intracellular abundance and half-life of IVT-RNA constructs (qRT-PCR); assay type: cell-based, human
Method: (A) CCD1079SK fibroblasts were either mock electroporated or electroporated with IVT RNA encoding for firefly luciferase (1 μg), eGFP (1.25 μg), SV40 Large T (1.25 μg), HPV16-E6 (1.25 μg), OCT4, SOX2, KLF4, cMYC, NANOG and LIN28 (2.5 μg OCT4 and equimolar amounts for the others). Electroporations were performed in 2 mm gap cuvettes using optimized parameters for CCDs. After electroporation cells were either left untreated or incubated with 2 μM C13H8N4OS for 24 h or 48 h. After 72 h cells were harvested to extract total RNA and perform qRT-PCR analysis for the codon optimized IVT-RNA constructs OCT4 and SOX2. […] Decay of transcripts was plotted against time and difference between half-lifes (t1/2) of the construct in absence or presence of C13H8N4OS was calculated (Δt1/2=t1/2 (+C13H8N4OS)−t1/2 (−C13H8N4OS)). […]
Total cellular RNA was extracted from cells with RNeasy Mini Kit or RNeasy Micro Kit (Qiagen, Hilden, Germany), reverse transcribed with oligo-dT18 using Superscript II (Invitrogen, Carlsbad, Calif., USA), and subjected to real-time quantitative analysis on ABI PRISM 7700 Sequence Detection System instrument and software (Applied Biosystems, Foster City, Calif., USA) using the QuantiTect SYBR Green PCR Kit (Qiagen). […]

[6] = highest concentration used (2 μM)

O=C1Nc2ccc3ncsc3c2/C1=C/c1c[nH]cn1 [C13H8N4OS, 6,8-dihydro-8-(1H-imidazol-5-ylmethylene)-7H-pyrrolo[2,3-g]benzothiazol-7-one]
GFP expression (MFI) ([1]; 0.5 μM to 2 μM, human fibroblasts): dose dependent increase | stabilization of GFP expression [1, 6]: high level of stabilization | luciferase expression ([2]; 0.5 μM to 2 μM, HUVECs): enhanced in HUVECs in a dose dependent manner | luciferase expression on additional application of inhibitor ([2]; HUVECs cotransfected with E3 and K3, increasing concentrations of C13H8N4OS): additively enhanced | duration of luciferase expression compared with fibroblasts ([2]; HUVECs, PKR inhibition): not as long lasting as observed in fibroblasts | luciferase expression ([3]; 0.5 μM to 2 μM, human fibroblasts, after electroporation): dose dependent increase | luciferase expression on additional application of inhibitor ([3]; 2 μM C13H8N4OS on CCD1079SK cotransfected with E3/K3, vs untreated controls): additive increase of luciferase expression and a stabilization | luciferase expression after transient treatment ([3]; 2 μM, 7 h incubation period): did not results in a significant increase of luciferase expression | luciferase expression after transient treatment ([3]; 2 μM, 24 h treatment): rapidly reversed after removal of the inhibitors | luciferase expression after transient treatment ([3]; 2 μM, 48 h treatment): less efficient than a permanent treatment | luciferase expression from modified (5mC and PU) IVT RNA ([3]; 2 μM, CCD1079Sk, 7 h to 72 h): further increases and stabilizes | luciferase expression from unmodified IVT-RNA ([3]; 2 μM, CCD1079Sk, 7 h to 72 h): greatly enhanced and stabilized | duration of high luciferase expression levels ([3]; 2 μM, permanent inhibition): 5 days | stabilization of luciferase expression [3, 6]: high level of stabilization | GFP expression (MFI) [4]: dose dependent increase | abundance of IVT RNA (OCT4, SOX2 constructs) ([5]; 2 μM for 24 h or 48 h, harvested after 72 h): increased the abundance of IVT RNA for 72 h | prolongation of half life of IVT RNA constructs OCT4, SOX2, KLF4 and cMYC (Δt1/2) ([5]; 2 μM for 80 h, presence vs absence of C13H8N4OS): 1 to 2.5 h
